Experimental data as given in ChEMBL document CHEMBL1201862, “PubChem BioAssay data set” (2004).
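Results reflect a 48-hour exposure of cells in 96-well plates to compound at five concentrations. GI50 marks 50% less growth.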 Active and inactive are the calls of the source. Rule as the data show it: active = GI50 up to about 1.1 µM and inactive = higher.

Tests used:
Experiment in all cases: NCI anticancer screen, dose series, 48 h
SF-539 = test system: SF-539
MDA-MB-231 = test system: MDA-MB-231
SK-OV-3 = test system: SK-OV-3
U-251 = test system: U-251
MOLT-4 = test system: MOLT-4
RPMI-8226 = test system: RPMI-8226
NCI-H460 = test system: NCI-H460
CAKI-1 = test system: CAKI-1
MDA-N = test system: MDA-N
HL-60 = test system: HL-60
SF-295 = test system: SF-295
UACC-62 = test system: UACC-62
SNB-19 = test system: SNB-19
MCF7 = test system: MCF7
HOP-62 = test system: HOP-62
UACC-257 = test system: UACC-257
A498 = test system: A498
OVCAR-4 = test system: OVCAR-4
RXF 393 = test system: RXF 393

Measured: GI50

CC(C)N(/C(F)=N\C(=O)Nc1ccccc1C(F)(F)F)C(C)C
inactive: SF-539 92 µM | MDA-MB-231 47.3 µM | SK-OV-3 33.7 µM | U-251 43.4 µM | MOLT-4 > 10 µM | RPMI-8226 24.4 µM | NCI-H460 68.2 µM | CAKI-1 37.4 µM | MDA-N 66.5 µM | HL-60 31 µM | SF-295 45.6 µM | UACC-62 > 10 µM | SNB-19 49.9 µM | MCF7 35.6 µM | HOP-62 75 µM | UACC-257 55.1 µM

CC(=O)ON(C(C)=O)c1ccc(-c2nc3ccccc3s2)cc1C
inactive: A498 5.11 µM | OVCAR-4 51.4 µM | SF-539 41 µM | MDA-MB-231 33.8 µM | U-251 10.4 µM | MOLT-4 66.7 µM | RPMI-8226 48.2 µM | NCI-H460 21.3 µM | CAKI-1 10.4 µM | MDA-N 75.5 µM | SF-295 31.6 µM | UACC-62 44.3 µM | SNB-19 50.1 µM | HOP-62 21.2 µM | UACC-257 50 µM

c1ccc(CSP234N5CCN2CCN3CCN4CC5)c(CSP234N5CCN2CCN3CCN4CC5)c1
inactive: OVCAR-4 > 100 µM | SF-539 41.7 µM | MDA-MB-231 > 100 µM | U-251 > 100 µM | MOLT-4 65.2 µM | RPMI-8226 27.7 µM | NCI-H460 > 100 µM | CAKI-1 > 100 µM | MDA-N 13.4 µM | HL-60 3.65 µM | SF-295 > 100 µM | UACC-62 > 100 µM | SNB-19 > 100 µM | MCF7 > 100 µM | HOP-62 > 100 µM | UACC-257 > 100 µM

CN1C(=O)C2CCC(=O)N2c2cccnc21 (stereo not given)
inactive: OVCAR-4 > 100 µM | SF-539 > 100 µM | MDA-MB-231 > 100 µM | U-251 > 100 µM | MOLT-4 > 100 µM | RPMI-8226 > 100 µM | NCI-H460 > 100 µM | CAKI-1 > 100 µM | MDA-N > 100 µM | HL-60 > 100 µM | SF-295 > 100 µM | UACC-62 > 100 µM | SNB-19 > 100 µM | MCF7 > 100 µM | HOP-62 > 100 µM | UACC-257 > 100 µM

O=C(Nc1ccc(N2C(=O)CSC2c2cccs2)cc1)c1ccc(N2C(=O)CSC2c2cccs2)cc1 (stereo not given)
inactive: OVCAR-4 > 100 µM | SF-539 > 100 µM | MDA-MB-231 > 100 µM | SK-OV-3 > 100 µM | U-251 86.5 µM | MOLT-4 39.5 µM | NCI-H460 > 100 µM | CAKI-1 > 100 µM | MDA-N > 100 µM | RXF 393 > 100 µM | SF-295 53 µM | UACC-62 56.5 µM | SNB-19 49 µM | MCF7 62.1 µM | HOP-62 95.3 µM | UACC-257 > 100 µM

Cc1noc(C)c1/N=N/c1ccc2nonc2c1N
inactive: OVCAR-4 > 100 µM | SF-539 23.4 µM | MDA-MB-231 > 100 µM | SK-OV-3 36.7 µM | MOLT-4 > 100 µM | RPMI-8226 > 100 µM | NCI-H460 > 100 µM | CAKI-1 > 100 µM | MDA-N > 100 µM | HL-60 > 100 µM | RXF 393 > 100 µM | SF-295 67.3 µM | UACC-62 > 100 µM | SNB-19 26.1 µM | MCF7 > 100 µM | HOP-62 79.4 µM | UACC-257 > 100 µM

O=C(O)c1cc(O)nc(SCc2ccccc2)n1
inactive: A498 > 100 µM | OVCAR-4 > 100 µM | MDA-MB-231 > 100 µM | U-251 > 100 µM | MOLT-4 > 100 µM | NCI-H460 > 100 µM | CAKI-1 > 100 µM | MDA-N > 100 µM | HL-60 > 100 µM | RXF 393 > 100 µM | SF-295 > 100 µM | UACC-62 > 100 µM | SNB-19 > 100 µM | HOP-62 > 100 µM | UACC-257 > 100 µM

OCC1OC(n2nc(-c3ccccc3)nc2-c2cnccn2)C(O)C1O (stereo not given)
inactive: OVCAR-4 > 100 µM | SF-539 > 100 µM | MDA-MB-231 > 100 µM | SK-OV-3 > 100 µM | U-251 > 100 µM | MOLT-4 > 100 µM | NCI-H460 > 100 µM | MDA-N > 100 µM | HL-60 > 100 µM | SF-295 > 100 µM | UACC-62 > 100 µM | SNB-19 > 100 µM | MCF7 > 100 µM | HOP-62 > 100 µM | UACC-257 > 100 µM

N#Cc1sc2c(c1OC(=O)c1ccc(Cl)cc1Cl)c(=O)n(-c1ccccc1)c(=S)n2-c1ccccc1
inactive: A498 24.9 µM | OVCAR-4 21.5 µM | SF-539 18.2 µM | MDA-MB-231 22.8 µM | SK-OV-3 32.7 µM | U-251 15.4 µM | MOLT-4 18.7 µM | RPMI-8226 31.7 µM | NCI-H460 33.3 µM | CAKI-1 23.7 µM | HL-60 19.6 µM | RXF 393 19.8 µM | SF-295 28.2 µM | UACC-62 18.4 µM | SNB-19 19.8 µM | MCF7 23 µM | HOP-62 26.4 µM | UACC-257 71.9 µM

COc1cc(C=C(c2ccc(N(C)C)cc2)c2ccc(N(C)C)cc2)c2ccccc2c1OC
inactive: OVCAR-4 70.3 µM | MDA-MB-231 > 100 µM | SK-OV-3 > 100 µM | U-251 54 µM | MOLT-4 > 100 µM | RPMI-8226 45.8 µM | NCI-H460 96.2 µM | CAKI-1 > 100 µM | MDA-N 16.2 µM | HL-60 9.29 µM | RXF 393 > 100 µM | SF-295 30.3 µM | UACC-62 27.4 µM | SNB-19 > 100 µM | MCF7 26.2 µM | HOP-62 64 µM | UACC-257 76.7 µM

OCc1ccc2c(c1)CC1(Cc3ccccc3C1)C2
inactive: A498 26.7 µM | OVCAR-4 34 µM | SF-539 18.3 µM | MDA-MB-231 10.1 µM | SK-OV-3 25.6 µM | MOLT-4 > 10 µM | RPMI-8226 15.8 µM | NCI-H460 19.6 µM | CAKI-1 15.9 µM | MDA-N 4.86 µM | HL-60 10.7 µM | RXF 393 15.7 µM | SF-295 18.1 µM | UACC-62 20.1 µM | HOP-62 25.6 µM | UACC-257 15.1 µM

COc1ccc(CCNC(=O)CCCCCO)cc1OC
inactive: A498 > 100 µM | OVCAR-4 > 100 µM | SF-539 > 100 µM | MDA-MB-231 > 100 µM | SK-OV-3 > 100 µM | U-251 > 100 µM | MOLT-4 > 100 µM | RPMI-8226 > 100 µM | NCI-H460 > 100 µM | CAKI-1 > 100 µM | HL-60 > 100 µM | RXF 393 > 100 µM | SF-295 > 100 µM | UACC-62 > 100 µM | SNB-19 > 100 µM | MCF7 > 100 µM | HOP-62 > 100 µM | UACC-257 > 100 µM
